The test system of one data set is Carragheenin foot edema. Put plainly: Carragheenin foot edema. It counts as in vivo, rats (male, Wister type). Particulars: 100 mg/Kg oral, 1 h before carragheenin, foot volume 3 h after injection; for inhibition in vivo at 100 mg/kg: Rattus norvegicus, read-out: Anti-Inflammatory Effect Control Ratio, Carragheenin Foot Edema. The procedure:
a. Carragheenin food edema
The test was conducted according to the method of C. […] Groups of rats (male rats of the Wister type having a body weight of 140-170 g), each group consisting of 5 to 11 rats, were caused to abstain from food for 16 hours, and a 4% gum arabic suspension of a test compound was orally administered to the rats in an amount of 100 mg/Kg. of the test compounds. Immediately, rats were allowed to drink 5 ml of purified water. […] After 3 hours had passed from the injection, the volume of the right foot was measured again to determine the increase of the volume of the right foot. In control groups, only a 4% gum arabic liquor free of a test compound was orally administered, and subsequent procedures were conducted similarly to determine the increase of the volume of the right foot. The carragheenin foot edema control ratio was calculated according to the following formula: [formula] wherein C indicates the foot volume increase in the control group and D indicates the foot volume increase in the test compound-administered group.

The subject of another data set is Adjuvant arthritis. Put plainly: Adjuvant arthritis. In kind it is in vivo, rats (female, Wister type). Particulars: 9 mg/Kg per day oral for 25 days, foot volume on 23rd day from adjuvant injection; for inhibition in vivo at 9 mg/kg: Rattus norvegicus, 552 h, read-out: Anti-Inflammatory Effect Control Ratio, Adjuvant Arthritis. Here is the method:
With respect to the foregoing compounds, anti-inflammatory effects against carragheenin foot edema, ultraviolet erythema and adjuvant arthritis were tested by using rate according to the following methods to obtain results shown below.
The test was conducted according to a modification of the method of B. B. Newbould (Brit. J. Pharmacol., 21, 127 (1963)). Groups of female rats of the Wister type having a body weight of 180 - 240 g, each group consisting of 4 to 8 rats, were tested. 0.05 ml of an adjuvant (formed by suspending 5 mg of dead tuberculous bacillus, Aoyama B strain, in 1 ml of fluid paraffin according to the Japanese pharmacopoeia) was hypodermically injected in the right foot heel of each rat. A test compound was orally administered in a dosage of 9 mg/Kg per day in the form suspended in a 5% gum arabic liquor continuously for 25 days from one day before the injection of the adjuvant. In the case of the control group, only a 5% gum arabic liquor was continuously administered in the same manner. The volume of the right foot was measured 1 day before the injection of the adjuvant and on the 23rd day from the injection of the adjuvant with respect to each group. Thus, the increase of the foot volume was calculated in either the test compound-administered group or the control group, and the ratio of control of the adjuvant arthritis was calculated according to the following formula: [formula] in which C is the increase of the volume of the right foot in the control group and D indicates the increase of the volume of the right foot in the test compound-administered rat group.

The test system of another data set is male mice. Put plainly: in vivo. Particulars: 7 days. Here is the method: With respect to the foregoing test compounds, the acute toxicity was examined by employing mice according to the following method.
Groups of male mice of the dd type having a body weight of 18 to 22 g, each, group consisting of 5 mice, were tested to determine the acute toxicity. The test compound was orally administered in a dosage indicated in Table 3a in the form suspended in 5% gum arabic liquor. The determination was conducted 7 days after the administration. Further, the LD50 values were calculated according to the method of Lichfield-Wilcoxon.

The next data set relates to Ultraviolet erythema. Put plainly: Ultraviolet erythema. Particulars: 10 mg/Kg oral, 1 h before irradiation, read 3 h after irradiation; for inhibition in vivo at 10 mg/kg: Cavia porcellus, light or radiation study, read-out: Anti-Inflammatory Effect Control Ratio, Ultraviolet Erythema. In kind it is in vivo, guinea pigs (male, Hartley type). The procedure: The test was conducted according to a modification of the method of C. […] Groups of guinea pigs (male guinea pigs of the Hartley type having a body weight of 300 to 450 g), each group consisting of 5 to 10 guinea pigs, were employed for the test. Hairs were removed from backs of the guinea pigs by an electric hair-clipper and a depilatory agent. The guinea pigs were caused to abstain from food for 18 to 19 hours, and a test compound was orally administered in an amount of 10 mg/Kg in the form suspended in a 4% gum arabic liquor. In the case of control groups, only a 4% gum arabic liquor was administered. An adhesive plaster according to the Japanese pharmacopoeia, on which three small holes having a diameter of 5 mm were opened, was applied to the hair-removed portion of the back. […] When 3 hours had passed from the irradiation, the degree of the formation of erythema was determined. One point was given to the guinea pig on which a definite round erythema was formed, a point of 0.5 was given to the guinea pig on which formation of erythema was observed but its contour was not definite, and a point of 0 was given to the guinea pig on which no erythema was formed. Total points were calculated in both the test compound-administered group and the control group, and the control ratio was calculated from these total points. [formula]

The subject of the next data set is inflammatory pain. Briefly: Analgesic effect on inflammatory pain (modified Randall and Selitto). It counts as in vivo, rats (male, Wister type). Particulars: 100 mg/Kg oral, 1 hour before carragheenin; pain measured 3 hours after injection. Here is the method: Groups of male rats of the Wister type having a body weight of about 150 g were tested, each group consisting of 5 rats. The rats were caused to abstain from food overnight, and 0.05 ml of a 1% carragheenin solution was hypodermically injected into the right hind leg of each rat. […] The test compound was orally administered in a dosage of 100 mg/Kg 1 hour before the injection of carragheenin. [formula]

SMILES strings stand for the structures.

Turning to `CC(C)Cc1ccc(Nc2ccccc2C(=O)O)c2ccccc12` [4 iso Butyl-, N-(4-isobutyl-naphthyl-1)anthranilic acid], the “Anti-Inflammatory Effect Control Ratio, Carragheenin Foot Edema” value in the data set with Carragheenin foot edema turned out to be 41.9%. Besides, the “Anti-Inflammatory Effect Control Ratio, Adjuvant Arthritis” value in the data set on Adjuvant arthritis came out at 31.0%. In addition, the “Number of Dead Mice/Number of Mice Tested” value in the data set on male mice (1 g/kg oral) is listed as 0 /10; in the data set with male mice (2 g/kg oral) it was 0 /10; in the data set on male mice (3 g/kg oral) it was 2 /10. In addition, the “Anti-Inflammatory Effect Control Ratio, Ultraviolet Erythema” value in the data set with Ultraviolet erythema is 43.8%. Further, the “Analgesic Coefficient” value with inflammatory pain is 1.37.

In the case of `O=C(O)c1ccccc1Nc1c(F)ccc2ccccc12` [Compound 4, N-(2-fluoro-1-naphthyl)anthranilic acid], the inhibition in vivo at 100 mg/kg in the data set on Carragheenin foot edema was found to be 27.6%. In addition, the inhibition in vivo at 9 mg/kg in the data set on Adjuvant arthritis amounted to 50%. Besides, the “Number of Dead Mice/Number of Mice Tested” value was 0 / 5 with male mice (1 g/kg oral), 0 / 5 in the data set on male mice (2 g/kg oral), 5 / 5 in the data set with male mice (3 g/kg oral) and 5 / 5 in the data set with male mice (4 g/kg oral). The inhibition in vivo at 10 mg/kg in the data set with Ultraviolet erythema turned out to be 48.7%. For the same molecule, the “Analgesic Coefficient” value in the data set with inflammatory pain was found to be 1.60.

In the case of `CCc1ccc(Nc2ccccc2C(=O)O)c2ccccc12` [4 Ethyl-], the “Anti-Inflammatory Effect Control Ratio, Carragheenin Foot Edema” value in the data set on Carragheenin foot edema was determined as 46.2%. In addition, in the data set with Adjuvant arthritis, the “Anti-Inflammatory Effect Control Ratio, Adjuvant Arthritis” value was found to be 21.5%. Besides, the “Number of Dead Mice/Number of Mice Tested” value is on record as 0 /10 in the data set with male mice (1 g/kg oral), 2 /10 in the data set on male mice (2 g/kg oral) and 4 /10 with male mice (3 g/kg oral). For the same molecule, the “Anti-Inflammatory Effect Control Ratio, Ultraviolet Erythema” value in the data set with Ultraviolet erythema came out at 60.0%. Also, the “Analgesic Coefficient” value with inflammatory pain stood at 1.20.

Take `O=C(O)c1ccccc1Nc1cc(F)cc2ccccc12` [Compound 7, N-(3-fluoro-1-naphthyl)anthranilic acid]: in the data set with Carragheenin foot edema, the inhibition in vivo at 100 mg/kg was found to be 35.4%. Further, the inhibition in vivo at 9 mg/kg in the data set with Adjuvant arthritis was 36.1%. In addition, the “Number of Dead Mice/Number of Mice Tested” value was 1 / 5 in the data set on male mice (2 g/kg oral) and 5 / 5 in the data set on male mice (3 g/kg oral). In addition, the inhibition in vivo at 10 mg/kg in the data set with Ultraviolet erythema was 44%. Besides, the “Analgesic Coefficient” value with inflammatory pain stood at 1.70.

For the molecule `CCCCc1ccc2ccccc2c1Nc1ccccc1C(=O)O` [N-(2-butyl-naphthyl-1-anthranilic acid], in the data set on Carragheenin foot edema, the inhibition in vivo at 100 mg/kg turned out to be 31%. In addition, the inhibition in vivo at 9 mg/kg with Adjuvant arthritis was determined as 26.2%. The “Number of Dead Mice/Number of Mice Tested” value in the data set on male mice (1 g/kg oral), in the data set with male mice (2 g/kg oral) and in the data set with male mice (3 g/kg oral) was 0 /10 throughout. Also, in the data set on Ultraviolet erythema, the inhibition in vivo at 10 mg/kg came out at 50.3%. The “Analgesic Coefficient” value in the data set on inflammatory pain amounted to 1.38.

On to `CCCCc1ccc(Nc2ccccc2C(=O)O)c2ccccc12` [4 Butyl-], for which the “Anti-Inflammatory Effect Control Ratio, Carragheenin Foot Edema” value with Carragheenin foot edema is listed as 16.8%. Further, the “Anti-Inflammatory Effect Control Ratio, Adjuvant Arthritis” value with Adjuvant arthritis is 1.3%. In addition, the “Number of Dead Mice/Number of Mice Tested” value is recorded as 0 /10 with male mice (1 g/kg oral), 0 /10 in the data set on male mice (2 g/kg oral) and 5 /10 in the data set on male mice (3 g/kg oral). Moreover, the “Anti-Inflammatory Effect Control Ratio, Ultraviolet Erythema” value in the data set with Ultraviolet erythema is recorded as 22.3%. The “Analgesic Coefficient” value in the data set with inflammatory pain was determined as 1.41.

For `O=C(O)c1ccccc1Nc1c(Cl)cc(Br)c2ccccc12` [Compound 8, N-(2-chloro-4-bromo-1-naphthyl)anthranilic acid], in the data set with Carragheenin foot edema, the inhibition in vivo at 100 mg/kg was determined as 27.6%. The inhibition in vivo at 9 mg/kg in the data set on Adjuvant arthritis amounted to 31.2%. Further, the “Number of Dead Mice/Number of Mice Tested” value in the data set with male mice (1 g/kg oral) is 0 / 5; with male mice (2 g/kg oral), 0 / 5; in the data set on male mice (3 g/kg oral) it was 0 / 5; in the data set with male mice (4 g/kg oral), 4 / 5. In the data set with Ultraviolet erythema, the inhibition in vivo at 10 mg/kg was 77.3%. In addition, the “Analgesic Coefficient” value in the data set on inflammatory pain is given as 1.72.

With `Cc1cc(Nc2ccccc2C(=O)O)c2ccccc2c1` [Compound 9, N-(3-methyl-1-naphthyl)anthranilic acid], the inhibition in vivo at 100 mg/kg in the data set with Carragheenin foot edema was found to be 44.3%. For the same molecule, the results for the “Number of Dead Mice/Number of Mice Tested” value in the data set on male mice (1 g/kg oral), in the data set with male mice (2 g/kg oral) and in the data set with male mice (3 g/kg oral) were 0 / 5, 3 / 5 and 5 / 5, respectively. Also, the inhibition in vivo at 10 mg/kg in the data set with Ultraviolet erythema is 46.3%.

Regarding `Cc1cccc(Nc2ccccc2C(=O)O)c1C` [Compound M, mefenamic acid, reference compound], the inhibition in vivo at 100 mg/kg in the data set with Carragheenin foot edema turned out to be 50.6%. In addition, in the data set on Adjuvant arthritis, the inhibition in vivo at 9 mg/kg stood at 48.1%. In addition, the “Number of Dead Mice/Number of Mice Tested” value with male mice (1 g/kg oral) and in the data set with male mice (2 g/kg oral) was 5 / 5 throughout. In addition, the inhibition in vivo at 10 mg/kg with Ultraviolet erythema is 38.1%. For the same molecule, the “Analgesic Coefficient” value in the data set on inflammatory pain came to 1.50.

With `Cc1cc(Nc2ccccc2C(=O)O)c2ccccc2c1C` [Compound 6, N-(3,4-dimethyl-1-naphthyl)anthranilic acid], in the data set on Carragheenin foot edema, the inhibition in vivo at 100 mg/kg amounted to 47.1%. For the same molecule, the inhibition in vivo at 9 mg/kg in the data set on Adjuvant arthritis was found to be 17.2%. Besides, the “Number of Dead Mice/Number of Mice Tested” value in the data set on male mice (1 g/kg oral) was 0 / 5; with male mice (2 g/kg oral), 2 / 5; in the data set on male mice (3 g/kg oral), 5 / 5; in the data set with male mice (4 g/kg oral), 5 / 5. Moreover, in the data set with Ultraviolet erythema, the inhibition in vivo at 10 mg/kg was determined as 17.1%. Also, the “Analgesic Coefficient” value in the data set on inflammatory pain was 1.28.

As to `CCCCCCc1ccc2ccccc2c1Nc1ccccc1C(=O)O` [2 Hexyl-, N-(2-n-hexyl-naphthyl-1)anthranilic acid], in the data set on Carragheenin foot edema, the inhibition in vivo at 100 mg/kg is 8.5%. Moreover, the “Number of Dead Mice/Number of Mice Tested” value with male mice (1 g/kg oral), in the data set on male mice (2 g/kg oral) and in the data set with male mice (3 g/kg oral) was 0 /10 in each case. In the data set with Ultraviolet erythema, the inhibition in vivo at 10 mg/kg is 44%. In addition, the “Analgesic Coefficient” value with inflammatory pain was 1.28.

On to `O=C(O)c1ccccc1Nc1cc(Cl)cc2ccccc12` [Compound 5, N-(3-chloro-1-naphthyl)anthranilic acid], for which, in the data set on Carragheenin foot edema, the inhibition in vivo at 100 mg/kg came out at 31.4%. For the same molecule, the inhibition in vivo at 9 mg/kg with Adjuvant arthritis worked out at 41.4%. The “Number of Dead Mice/Number of Mice Tested” value in the data set with male mice (1 g/kg oral) is 0 / 5; in the data set with male mice (2 g/kg oral) it was 0 / 5; in the data set on male mice (3 g/kg oral), 4 / 5; in the data set with male mice (4 g/kg oral), 5 / 5. Besides, the inhibition in vivo at 10 mg/kg with Ultraviolet erythema is 40%. Also, the “Analgesic Coefficient” value in the data set with inflammatory pain was 1.31.

Turning to `O=C(O)c1ccccc1Nc1c(Cl)ccc2ccccc12` [Compound 3, N-(2-chloro-1-naphthyl)anthranilic acid], the inhibition in vivo at 100 mg/kg in the data set with Carragheenin foot edema was 46.6%. Also, the inhibition in vivo at 9 mg/kg in the data set on Adjuvant arthritis is 36.9%. Moreover, the “Number of Dead Mice/Number of Mice Tested” value in the data set on male mice (1 g/kg oral) was 0 / 5; in the data set on male mice (2 g/kg oral), 2 / 5; with male mice (3 g/kg oral), 4 / 5; in the data set with male mice (4 g/kg oral) it was 5 / 5. The inhibition in vivo at 10 mg/kg in the data set on Ultraviolet erythema came to 66.7%. Besides, the “Analgesic Coefficient” value in the data set with inflammatory pain came out at 1.62.

These data come from US3989746A, “Substituted naphthyl anthranilic acids” (Ikeda Mohando Co., Ltd., priority 1972, dated 1976).
